Drawing on ChEMBL document CHEMBL1151394, “Cytotoxic agent from Senecio anonymus wood” (1982), this text covers EC50 and T/C for two compounds.

The subject of test [1] is KB. Put plainly: Cytotoxicity against human KB cells. Format: functional. To be noted: read-out: ED50 (the source's name).
Test [2] relates to P388. Put plainly: In vivo cytotoxicity against mouse P388 cells. Format: functional.

≈ marks a conversion by molar mass, not a printed value.

As for `CCOC(=O)CC1(O)C=CC(=O)C=C1`, the EC50 in test [1] came out at 3.3 µg/mL (≈ 16.8 µM).
`COC(=O)CC1(O)C=CC(=O)C=C1` [JACARANONE] returned a T/C in test [2] of 165%. For the same compound, in test [1], the EC50 was 2.1 µg/mL (≈ 11.5 µM).

The T/C is the ratio of treated to control.
